# System: PDE4
# Assay: PDE4 enzyme inhibition (IC50), enzyme from cytosolic preparation of U937 cell line
# Assay type: biochemical, human
# Settings: inhibitory activity on PDE4; substrate cAMP 0.25 μM; reaction stopped after 10 minutes
# Description: The capacity of the compounds of formula (I) of the invention to inhibit cyclic nucleotide phosphodiesterases is evaluated by measuring their IC50 (concentration required to inhibit 50% of the enzymatic activity).
# The type 4 phosphodiesterases are obtained from a cytosolic preparation extracted from a cell line U937 of human origin according to the method adapted from T. J. Torphy et al., J. Pharm. Exp. Ther. (1992), 263: 1195-1205.
# The measurement of the enzymatic activity of the various types of PDE, and in particular the PDE4, is carried out according to a method adapted from W. J. Thompson et al., Advances in Cyclic Nucleotide Research, (1979) Vol. 10: 69-92, ed. G. Brooker et al. Raven Press, NY.
# The substrate used is cGMP for PDE1 and PDE5 and cAMP for PDE 3 and PDE 4. The substrate concentration was 0.2 μM for PDE 1, PDE 3 and PDE 5, 0.25 μM for PDE 4.
# The enzymatic reaction was stopped after 1 hour for PDE 1, PDE 3 and PDE 5 and 10 minutes for PDE 4.
# The following table illustrates the inhibitory activity on PDE4 of some of the compounds of formula (I): […]
row,SMILES,IC50 [nM]
1,"CNc1ccc2c(c1)c(=O)n(Cc1ccc(C#N)cc1)c1nnc(C3CCCC3)n21 [Example 9, 4-(4-cyanobenzyl)-1-cyclopentyl-7-(N-methylamino)-4H-[1,2,4]triazolo[4,3-a]quinazolin-5-one]",2
2,"Cc1nnc2n(Cc3ccccc3)c(=O)c3cc(Br)ccc3n12 [Example 11, 4-benzyl-7-bromo-1-methyl-4H-[1,2,4]triazolo[4,3-a]quinazolin-5-one]",1000
3,"CC(=O)Nc1ccc2c(c1)c(=O)n(Cc1ccccc1)c1nnc(C)n21 [Example 4, 7-acetamido-4-benzyl-1-methyl-4H-[1,2,4]triazolo[4,3-a]quinazolin-5-one]",31000

# Further lines, results first:
row,IC50 [nM],SMILES
1,61,"O=c1c2cc(Br)ccc2n2c(C3CCCC3)nnc2n1Cc1ccccc1 [Example 10, 4-benzyl-7-bromo-1-cyclopentyl-4H-[1,2,4]triazolo[4,3-a]quinazolin-5-one]"
2,75,"CNc1ccc2c(c1)c(=O)n(Cc1ccccc1)c1nnc(C3CCCC3)n21 [Example 7, 4-benzyl-1-cyclopentyl-7-methylamino-4H-[1,2,4]triazolo[4,3-a]quinazolin-5-one]"
3,8500,"CC(=O)Nc1ccc2c(c1)c(=O)n(Cc1ccccc1)c1nnc(C3CCCC3)n21 [Example 2, 7-acetamido-4-benzyl-1-cyclopentyl-4H-[1,2,4]triazolo[4,3-a]quinazolin-5-one]"
4,1300,"CC(=O)N(C)c1ccc2c(c1)c(=O)n(Cc1ccc(C#N)cc1)c1nnc(C3CCCC3)n21 [Example 8, 4-(4-cyanobenzyl)-1-cyclopentyl-7-(N-methylacetamido)-4H-[1,2,4]triazolo[4,3-a]quinazolin-5-one]"
5,2700,"CC(=O)N(C)c1ccc2c(c1)c(=O)n(Cc1ccccc1)c1nnc(C3CCCC3)n21 [Example 5, 4-benzyl-1-cyclopentyl-7-(N-methylacetamido)-4H-[1,2,4]triazolo[4,3-a]quinazolin-5-one]"

# System: not given
# Assay: not given
# Settings: dose of 20 mg as a single intake; cited from earlier work
row,SMILES,undesirable effects
1,COc1ccc([C@]2(C#N)CC[C@@H](C(=O)O)CC2)cc1OC1CCCC1 [Ariflo],"significant undesirable effects, such as nausea and vomiting"
